Laboratory results taken from US8329705B2, “Substituted triazolo-pyrazine compounds” (ArQule, Inc., priority 2009, dated 2012).

Assays:
FGFR2 (N549H) = biological target: T1, FGFR2 (N549H) (Homo sapiens, UniProt P21802, N549H); experiment: FGFR2 kinase activity assay (fluorescent ELISA); type: biochemical; details: 30 μM compound
T1 construct: purchased Millipore 14-742
Procedure: A fluorescent ELISA assay was developed to identify and characterize inhibitors of FGFR2 kinase. This heterogeneous assay utilized a biotinylated peptide with a tyrosine motif as a substrate and an anti-phospho-tyrosine antibody to measure phosphorylation of the substrate. The reaction was initiated by adding a test compound, 37 uM Pyk2 substrate (Midwest Biotech, cat. #MBT2383), 12.5 uM ATP (Roche, cat. #11 140 965 001), and 0.5 uM FGFR2 enzyme (Millipore, cat. #14-742) sequentially to a non-binding polypropylene V-well plate. All reagents were in assay buffer consisting of: 50 mM Tris-HCL, 0.02 mg/mL BSA, 10 mM MgCl2, 0.1 mM Na3VO4, 1 mM EGTA, […], 0.01% NP-40, 2 mM DTT, 10% Glycerol. The reaction was incubated for 60 minutes. As the reaction proceeded, FGFR2 phosphorylated tyrosines in the peptide. The reaction mixture was then moved to a blocked streptavidin coated Nunc Maxisorb plate (coated with 100 ng streptavidin from Pierce (cat #15-124) per well) allowing for the capture of the biotinylated peptide. Peptide was captured for 30 minutes at room temperature, the phosphorylation of peptide continues during this phase. The reaction was stopped by washing the Streptavidin plate 6 times with TBST. Phosphorylated peptide was detected by adding anti-phospho tyrosine antibody (purchased from Cell Signaling, cat. #9411, diluted 1:3000), unbound antibody was removed by washing 6 times with TBST. Secondary detection was performed using Alkaline Phosphatase tagged goat anti-mouse antibody (purchased from Pierce, cat. #31320, diluted 1:4000) for one hour. Unbound secondary antibody was removed by washing 6 times with TBST.
The fluorescent readout was initiated by the addition of Promega Attophos substrate (purchased from Promega; Kit catalog number: S1000, dilution=6 mg/10 mL), which when dephosphorylated by Alkaline phosphatase emitted a fluorescent signal of […] when excited by a signal […]. This reading was done on the Perkin Elmer Envision system. […] The signal was directly proportional to the activity of FGFR2 and compound inhibition of FGFR2 was monitored by a decrease in signal.

MDA-MB-231 cancer cells = experiment: MTS assay, MDA-MB-231 cells; type: cell-based; parameters: concentration or dose not given beside the values
Procedure: (§1) Cells were maintained at 37° C., 5% CO2 in DMEM media supplemented with 1% fetal bovine serum, penicillin/streptomycin and fungizone (Invitrogen). Cells were seeded into 96-well tissue culture plates at 3000 per well and cultured at 37° C. for 18 hours. Test compounds were dissolved and diluted to 300× in DMSO then diluted 1:40 in DMEM. Cells were incubated with test compounds for 72 hours followed by incubation with tetrazolium compound (3-(4,5-dimethylthiazol-2-yl)-5-(3-carboxymethoxyphenyl)-2-(4-sulfophenyl)-2H-tetrazolium, inner salt; MTS) and the electron coupling reagent, phenazine methosulfate (PMS) for 4 hours. […] The ability of compounds to inhibit cell growth in this assay is correlated with the reduction of dehydrogenase enzyme activity found in metabolically active cells. The measurement of the absorbance of the formazan was assessed using a Victor (Perkin Elmer) microplate reader at 492 nm. The calculated IC50 value is the concentration of the test compound that causes a 50% decrease in the absorbance. Percent inhibition by representative compounds of the present invention in MDA-MB231 and DLD-1 cancer cells is shown in Table 4.

DLD-1 cancer cells = experiment: MTS assay, DLD-1 cells; type: cell-based; parameters: concentration or dose not given beside the values
Procedure: as §1

T1 sequence (P21802 22-821 N549H): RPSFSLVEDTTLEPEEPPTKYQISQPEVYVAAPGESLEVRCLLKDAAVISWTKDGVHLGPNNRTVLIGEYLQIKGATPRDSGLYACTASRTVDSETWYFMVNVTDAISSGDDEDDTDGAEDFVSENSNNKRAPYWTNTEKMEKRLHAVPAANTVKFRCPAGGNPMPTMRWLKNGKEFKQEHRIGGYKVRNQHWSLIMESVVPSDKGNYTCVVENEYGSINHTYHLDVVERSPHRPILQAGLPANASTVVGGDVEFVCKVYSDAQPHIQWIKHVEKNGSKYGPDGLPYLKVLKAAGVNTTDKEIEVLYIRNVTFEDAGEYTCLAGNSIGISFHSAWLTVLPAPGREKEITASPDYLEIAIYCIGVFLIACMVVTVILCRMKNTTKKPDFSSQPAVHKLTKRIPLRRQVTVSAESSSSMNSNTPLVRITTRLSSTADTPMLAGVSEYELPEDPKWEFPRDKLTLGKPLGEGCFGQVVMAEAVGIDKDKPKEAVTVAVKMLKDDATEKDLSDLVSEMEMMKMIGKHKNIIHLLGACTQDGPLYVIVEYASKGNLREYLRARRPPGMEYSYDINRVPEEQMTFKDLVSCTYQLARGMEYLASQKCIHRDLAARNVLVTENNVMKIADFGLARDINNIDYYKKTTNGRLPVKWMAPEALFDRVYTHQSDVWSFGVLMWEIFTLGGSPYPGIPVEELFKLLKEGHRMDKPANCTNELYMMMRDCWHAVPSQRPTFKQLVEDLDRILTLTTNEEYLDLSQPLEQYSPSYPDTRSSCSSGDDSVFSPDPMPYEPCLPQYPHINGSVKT

Compound	inhibition at 30 µM (FGFR2 (N549H)) [%]	MDA-MB-231, MTS, 72 hours (% inhibition) (MDA-MB-231 cancer cells) [%]	DLD-1, MTS, 72 hours (% Inhibition) (DLD-1 cancer cells) [%]
COc1ccccc1CCNc1nccn2c(NC(=O)OC(C)C)nnc12 [Compound 58, isopropyl (8-{[2-(2-methoxyphenyl)ethyl]amino}[1,2,4]triazolo[4,3-a]pyrazin-3-yl)carbamate]	80.6	59	10
Nc1nnc2c(Nc3cc(Cl)ccc3Cl)nccn12 [Compound 160, N^8-(2,5-dichlorophenyl)[1,2,4]triazolo[4,3-a]pyrazine-3,8-diamine]	68.6	81	53
Nc1nnc2c(NCCc3ccc(Oc4ccccc4)cc3)nccn12 [Compound 93, N^8-[2-(4-phenoxyphenyl)ethyl][1,2,4]triazolo[4,3-a]pyrazine-3,8-diamine]	82.9	99	98
CC(C)OC(=O)Nc1nnc2c(NCc3cccc(C(F)(F)F)c3)nccn12 [Compound 81, isopropyl (8-{[3-(trifluoromethyl)benzyl]amino}[1,2,4]triazolo[4,3-a]pyrazin-3-yl)carbamate]	96.9	99	98
CC(C)OC(=O)Nc1nnc2c(N3CCC(n4c(=O)[nH]c5cc(Cl)ccc54)CC3)nccn12 [Compound 82, isopropyl {8-[4-(5-chloro-2-oxo-2,3-dihydro-1H-benzimidazol-1-yl)piperidin-1-yl][1,2,4]triazolo[4,3-a]pyrazin-3-yl}carbamate]	65.2	92	97
CCN(c1ccccc1C)c1nccn2c(NC(=O)OC(C)C)nnc12 [Compound 63, isopropyl {8-[ethyl(2-methylphenyl)amino][1,2,4]triazolo[4,3-a]pyrazin-3-yl}carbamate]	75.7	76	98
CC(C)OC(=O)Nc1nnc2c(N3CCCCC3)nccn12 [Compound 59, isopropyl (8-piperidin-1-yl[1,2,4]triazolo[4,3-a]pyrazin-3-yl)carbamate]	82.5	53	48
CC(C)OC(=O)Nc1nnc2c(NCc3cccc(F)c3)nccn12 [Compound 86, isopropyl {8-[(3-fluorobenzyl)amino][1,2,4]triazolo[4,3-a]pyrazin-3-yl}carbamate]	88.8	98	97
COc1ccccc1CNc1nccn2c(NC(=O)OC(C)C)nnc12 [Compound 15, isopropyl {8-[(2-methoxybenzyl)amino][1,2,4]triazolo[4,3-a]pyrazin-3-yl}carbamate]	51	83	98
COc1ccc(CCNc2nccn3c(N)nnc23)cc1 [Compound 117, N^8-[2-(4-methoxyphenyl)ethyl][1,2,4] triazolo[4,3-a]pyrazine-3,8-diamine]	–	99	97
CC(C)OC(=O)Nc1nnc2c(N(C)c3ccccn3)nccn12 [Compound 53, isopropyl {8-[methyl(pyridin-2-yl)amino][1,2,4]triazolo[4,3-a]pyrazin-3-yl}carbamate]	68.1	99	96
Nc1nnc2c(NCCc3ccccc3)nccn12 [Compound 136, N^8-(2-phenylethyl)[1,2,4]triazolo [4,3-a]pyrazine-3,8-diamine]	–	76	97
COc1ccccc1Nc1nccn2c(NC(=O)OC(C)C)nnc12 [Compound 39, isopropyl {8-[(2-methoxyphenyl)amino][1,2,4]triazolo[4,3-a]pyrazin-3-yl}carbamate]	78.3	97	97
COc1cccc(Nc2nccn3c(NC(=O)OC(C)C)nnc23)c1 [Compound 5]	–	98	96
CC(C)OC(=O)Nc1nnc2c(Nc3ccc(Br)cc3)nccn12 [Compound 52, isopropyl {8-[(4-bromophenyl)amino][1,2,4]triazolo[4,3-a]pyrazin-3-yl}carbamate]	95.1	98	97
CC(C)OC(=O)Nc1nnc2c(NCc3ccc(C(C)(C)C)cc3)nccn12 [Compound 22, isopropyl {8-[(4-tert-butylbenzyl)amino][1,2,4]triazolo[4,3-a]pyrazin-3-yl}carbamate]	100	99	98
CCc1ccc(CCNc2nccn3c(NC(=O)OC(C)C)nnc23)cc1 [Compound 62, isopropyl (8-{[2-(4-ethylphenyl)ethyl]amino}[1,2,4]triazolo[4,3-a]pyrazin-3-yl)carbamate]	74.2	78	93
Cc1ccnc(N(Cc2ccccc2)c2nccn3c(NC(=O)OC(C)C)nnc23)c1 [Compound 8, Isopropyl {8-[benzyl(4-methylpyridin-2-yl)amino][1,2,4]triazolo[4,3-a]pyrazin-3-yl}carbamate]	–	94	99
Cc1ccccc1Nc1nccn2c(N)nnc12 [Compound 157, N^8-(2-methylphenyl)[1,2,4]triazolo[4,3-a]pyrazine-3,8-diamine]	54.6	98	97
CC(C)OC(=O)Nc1nnc2c(NCCC3CCCN3C)nccn12 (stereo not shown) [Compound 21, Isopropyl (8-{[2-(1-methylpyrrolidin-2-yl)ethyl]amino}[1,2,4]triazolo[4,3-a]pyrazin-3-yl)carbamate]	–	69	58
CCN(c1cc(O)ccc1C)c1nccn2c(NC(=O)OC(C)C)nnc12 [Compound 64, isopropyl {8-[ethyl(5-hydroxy-2-methylphenyl)amino][1,2,4]triazolo[4,3-a]pyrazin-3-yl}carbamate]	57.2	51	26
Nc1nnc2c(NCCc3ccc(Cl)cc3)nccn12 [Compound 115, N^8-[2-(4-chlorophenyl)ethyl][1,2,4]triazolo[4,3-a]pyrazine-3,8-diamine]	71.6	99	98
Cc1ccc(CCNc2nccn3c(N)nnc23)cc1 [Compound 90, N^8-[2-(4-methylphenyl)ethyl][1,2,4]triazolo[4,3-a]pyrazine-3,8-diamine]	60.8	81	89
